Where two headings read alike, the source gives them in different places.
Columns and labels:
Test in all cases: Ras GTP binding domain inhibition assay (Cy3-GTP/Cy5-GTP competition)
KRas Q61H mutant = tested on: KRas Q61H mutant; parameters: species or system human; settings: 20 μM
Method: (§1) The following method was developed as specific assay for the following proteins: KRas wild type, KRas Q61H mutant, KRas G12C mutant, KRas G12D mutant, HRas wild type, Rac-1, and Rho-A.
(§2) • 25 mM Tris-HCl, pH 7.4 • 27 mM KCl • 137 mM NaCl • 1 mM MgCl2 • 1 mM DTT
(§3) • 50 mM Tris-HCl, pH 7.0 • 1 mM MgCl2 • 1 mM DTT
(§4) The small GTPases proteins: KRas wild type. KRas Q61H mutant, KRas G12C mutant, KRas G12D mutants, HRas wild type, Rac-1, and Rho-A were expressed as His-tagged proteins. In addition, the Guanosine nucleotide Exchange Factor (GEF) Sos protein (residues 556-1049) was expressed as a His-tagged protein. In cells, the guanine nucleotide exchange factor Sos protein promotes activation of Ras proteins by stimulating an exchange of GDP for GTP. The inclusion of Sos to the Ras GTP binding domain inhibition assay may be considered as an alternative representation of physiological cellular conditions for evaluating the inhibitory activity of some of the tested small molecules.
(§5) For the assay, all purified small GTPases proteins were diluted in Buffer-I or Buffer-II to a final concentration of 10-30 μg/mL. 200 μL of each diluted protein was added to a nickel-coated 96-well plate and incubated overnight at 4° C. Then the protein solution was discarded and 200 μL of Buffer-I or Buffer-II was added to each well in the presence of 1% DMSO. Compounds to be tested were added to the protein-coated wells at final concentration of 20 μM, and incubated for 3 hours at room temperature with and without […] of Sos added to the final hour of the incubation. When performing IC50 measurements a serial dilution of all tested concentrations was added. Then Cy3-GTP or Cy5-GTP was added to each well to a final concentration of 100 nM. The labeled GTP was incubated for 45 minutes at room temperature. Following GTP incubation, wells were washed 3× in Buffer-I or Buffer-II and 200 μL of Buffer-I or Buffer-II was added to each well. Following washes, the amount of bound labeled-GTP was measured using a SpectraMax M3 (Molecular Devices).

KRas G12C mutant = tested on: KRas G12C mutant; parameters: species or system human; settings: 20 μM; for KRas G12C mutant + SOS: % inh.: with SOS; for KRas G12C mutant: % inh.: without SOS
Method: as §1, §2, §3, §4, §5

KRas wild type = tested on: KRas wild type; parameters: species or system human; settings: 20 μM; for KRas wild type: % inh.: without SOS; for KRas wild type % inh.: without SOS (Table 7A)
Method: as §1, §2, §3, §4, §5

KRas G12D mutant = target: T1, KRas G12D mutant (Homo sapiens, UniProt P01116, G12D); settings: for IC50: cell-free, 100 nM Cy3-GTP or Cy5-GTP
T1 construct: fused on or other part: His tag, used for capture on nickel-coated plates
Method: as §1, §2, §3, §4, §5

[1] = 20 μM, with SOS, read-out: KRas G-12D mutant + SOS: % inh.
[2] = 20 μM, without SOS, read-out: KRas G12D mutant: % inh.
[3] = at 20 μM, with SOS, read-out: KRas G12D mutant + SOS: % inh.
[4] = at 20 μM, without SOS, read-out: KRas G12D mutant: % inh.
[5] = 20 μM, with SOS (Table 7A), read-out: KRas G12D mutant + SOS: % inh.
[6] = 20 μM, without SOS (Table 7A), read-out: KRas G12D mutant: % inh.

COC1CCN(c2nc(-c3nccn3C)nc3sc(-c4ccnc(N(C)C)c4)c(-c4ccccc4)c23)C1.Cl (centres unmarked)
KRas Q61H mutant + SOS: % inh. (KRas Q61H mutant; with SOS): D (76-100% inhibition)
KRas Q61H mutant: % inh. (KRas Q61H mutant; without SOS): D (76-100% inhibition)
KRas G12C mutant + SOS: % inh. (KRas G12C mutant): D (76-100% inhibition)
KRas G12C mutant: % inh. (KRas G12C mutant): A (1-25% inhibition)
KRas wild type + SOS: % inh. (KRas wild type; with SOS): D (76-100% inhibition)
KRas wild type: % inh. (KRas wild type): C (51-75% inhibition)
inhibition at 20 µM (KRas G12D mutant; [1]): 51 to 75%
inhibition at 20 µM (KRas G12D mutant; [2]): 51 to 75%

CO[C@H]1CC[C@@H](Nc2nc(-c3nc(C)cn3C)nc3sc(-c4cccc5[nH]ncc45)c(C)c23)C1 [drawing 1032]
inhibition at 20 µM (KRas G12D mutant; [3]): 26 to 50%
inhibition at 20 µM (KRas G12D mutant; [4]): 26 to 50%

Oc1nc(-c2ncc3n2CCCC3)nc2c(-c3ccccn3)csc12 [drawing 833]
KRas Q61H mutant + SOS: % inh. (KRas Q61H mutant; with SOS): C (51-75% inhibition)
KRas Q61H mutant: % inh. (KRas Q61H mutant; without SOS): C (51-75% inhibition)
KRas G12C mutant + SOS: % inh. (KRas G12C mutant): C (51-75% inhibition)
KRas G12C mutant: % inh. (KRas G12C mutant): D (76-100% inhibition)
KRas wild type + SOS: % inh. (KRas wild type; with SOS): B (26-50% inhibition)
KRas wild type: % inh. (KRas wild type): C (51-75% inhibition)
inhibition at 20 µM (KRas G12D mutant; [1]): 51 to 75%
inhibition at 20 µM (KRas G12D mutant; [2]): 51 to 75%

CO[C@H]1C[C@@H](Nc2nc(-c3nccn3C)nc3sc(C(=O)NC(C)C)c(-c4ccccc4)c23)C1 [drawing 1068]
IC50 (KRas G12D mutant): 5 to 10 µM

COCCNC(=O)c1sc2nc(-c3nccn3C)nc(N[C@H]3C[C@@H](OC)C3)c2c1-c1ccccc1 [drawing 1069]
IC50 (KRas G12D mutant): 5 to 10 µM

Cc1c(-c2ccn(C)n2)sc2nc(-c3nccn3C)nc(NCCOC(=O)N(C)C)c12 [drawing 1066]
IC50 (KRas G12D mutant): 5 to 10 µM

COc1c(F)cccc1-c1sc2nc(-c3nccn3C)nc(N[C@@H]3CC[C@H](OC)C3)c2c1-c1ccccc1 [drawing 1022]
inhibition at 20 µM (KRas G12D mutant; [3]): 76 to 100%
inhibition at 20 µM (KRas G12D mutant; [4]): 76 to 100%

COc1c(F)cccc1-c1sc2nc(-c3nccn3C)nc(N[C@@H]3CC[C@H](OC)C3)c2c1-c1ccccc1 [drawing 887]
KRas Q61H mutant + SOS: % inh. (KRas Q61H mutant; with SOS (Table 7A)): D (76-100% inhibition)
KRas Q61H mutant: % inh. (KRas Q61H mutant; without SOS (Table 7A)): D (76-100% inhibition)
KRas wild type + SOS: % inh. (KRas wild type; with SOS (Table 7A)): D (76-100% inhibition)
KRas wild type % inh. (KRas wild type): D (76-100% inhibition)
inhibition at 20 µM (KRas G12D mutant; [5]): 76 to 100%
inhibition at 20 µM (KRas G12D mutant; [6]): 76 to 100%

COCCNC(=O)c1sc2nc(-c3nccn3C)nc(N[C@@H]3CC[C@H](OC)C3)c2c1-c1ccccc1 [drawing 1073]
IC50 (KRas G12D mutant): 5 to 10 µM

CO[C@H]1CC[C@@H](Nc2nc(-c3nccn3C)nc3sc(-c4ccn(C(C)C)n4)c(C4=CC=CCC=C4)c23)C1 [drawing 1063]
IC50 (KRas G12D mutant): 1 to 4.99 µM

COc1cccc(-c2sc3nc(-c4nccn4C)nc(N[C@@H]4CC[C@H](OC)C4)c3c2-c2ccccc2)c1F [drawing 884]
KRas Q61H mutant + SOS: % inh. (KRas Q61H mutant; with SOS (Table 7A)): D (76-100% inhibition)
KRas Q61H mutant: % inh. (KRas Q61H mutant; without SOS (Table 7A)): C (51-75% inhibition)
KRas wild type + SOS: % inh. (KRas wild type; with SOS (Table 7A)): D (76-100% inhibition)
KRas wild type % inh. (KRas wild type): C (51-75% inhibition)
inhibition at 20 µM (KRas G12D mutant; [5]): 51 to 75%
inhibition at 20 µM (KRas G12D mutant; [6]): 51 to 75%

CO[C@H]1CC[C@@H](Nc2nc(-c3nccn3C)nc3sc(C(=O)N4CCOCC4)c(-c4ccccc4)c23)C1 [drawing 1075]
IC50 (KRas G12D mutant): 5 to 10 µM

COc1cccc(-c2sc3nc(-c4nccn4C)nc(N[C@@H]4CC[C@H](OC)C4)c3c2C)c1F [drawing 1029]
inhibition at 20 µM (KRas G12D mutant; [3]): 51 to 75%
inhibition at 20 µM (KRas G12D mutant; [4]): 51 to 75%

COC1CCN(C(=O)c2sc3nc(-c4nccn4C)nc(N[C@H]4C[C@@H](OC)C4)c3c2C2=CC=CCC=C2)C1 (some centres unmarked)
IC50 (KRas G12D mutant): 5 to 10 µM

CO[C@H]1C[C@@H](Nc2nc(-c3nccn3C)nc3sc(C(=O)N4CCOCC4)c(-c4ccccc4)c23)C1 [drawing 1070]
IC50 (KRas G12D mutant): 5 to 10 µM

COc1cccc(-c2sc3nc(-c4nc(C)cn4C)nc(N[C@@H]4CC[C@H](OC)C4)c3c2C)c1F [drawing 896]
KRas Q61H mutant + SOS: % inh. (KRas Q61H mutant; with SOS (Table 7A)): B (26-50% inhibition)
KRas Q61H mutant: % inh. (KRas Q61H mutant; without SOS (Table 7A)): A (1-25% inhibition)
KRas wild type + SOS: % inh. (KRas wild type; with SOS (Table 7A)): B (26-50% inhibition)
KRas wild type % inh. (KRas wild type): A (1-25% inhibition)
inhibition at 20 µM (KRas G12D mutant; [5]): 26 to 50%
inhibition at 20 µM (KRas G12D mutant; [6]): 1 to 25%

Cc1c(-c2ccn(C)n2)sc2nc(-c3nccn3C)nc(NCCCC(=O)N(C)C)c12 [drawing 1065]
IC50 (KRas G12D mutant): 5 to 10 µM

CO[C@H]1CC[C@@H](Nc2nc(-c3nccn3C)nc3sc(-c4ccn(C(C)C)n4)c(C)c23)C1 [drawing 1067]
IC50 (KRas G12D mutant): 5 to 10 µM

CO[C@H]1CC[C@@H](Nc2nc(-c3nccn3C)nc3sc(C(=O)NC(C)C)c(-c4ccccc4)c23)C1 [drawing 1072]
IC50 (KRas G12D mutant): 5 to 10 µM

CO[C@H]1CC[C@@H](Nc2nc(-c3nccn3C)nc3sc(-c4cccc5[nH]ncc45)c(-c4ccccc4)c23)C1 [drawing 889]
KRas Q61H mutant + SOS: % inh. (KRas Q61H mutant; with SOS (Table 7A)): D (76-100% inhibition)
KRas Q61H mutant: % inh. (KRas Q61H mutant; without SOS (Table 7A)): C (51-75% inhibition)
KRas wild type + SOS: % inh. (KRas wild type; with SOS (Table 7A)): D (76-100% inhibition)
KRas wild type % inh. (KRas wild type): C (51-75% inhibition)
inhibition at 20 µM (KRas G12D mutant; [5]): 51 to 75%
inhibition at 20 µM (KRas G12D mutant; [6]): 51 to 75%

CO[C@H]1CC[C@@H](Nc2nc(-c3nc(C)cn3C)nc3sc(-c4cccc5[nH]ncc45)c(C)c23)C1 [drawing 897]
KRas Q61H mutant + SOS: % inh. (KRas Q61H mutant; with SOS (Table 7A)): B (26-50% inhibition)
KRas Q61H mutant: % inh. (KRas Q61H mutant; without SOS (Table 7A)): B (26-50% inhibition)
KRas wild type + SOS: % inh. (KRas wild type; with SOS (Table 7A)): B (26-50% inhibition)
KRas wild type % inh. (KRas wild type): B (26-50% inhibition)
inhibition at 20 µM (KRas G12D mutant; [5]): 26 to 50%
inhibition at 20 µM (KRas G12D mutant; [6]): 26 to 50%

CO[C@H]1CC[C@@H](Nc2nc(-c3nccn3C)nc3sc(C(=O)N4CCCC4)c(-c4ccccc4)c23)C1 [drawing 1074]
IC50 (KRas G12D mutant): 5 to 10 µM

COc1cccc(-c2sc3nc(-c4nccn4C)nc(N[C@@H]4CC[C@H](C=O)C4)c3c2-c2ccccc2)c1F (racemic)
inhibition at 20 µM (KRas G12D mutant; [3]): 51 to 75%
inhibition at 20 µM (KRas G12D mutant; [4]): 51 to 75%

COc1cccc(-c2sc3nc(-c4nc(C)cn4C)nc(N[C@@H]4CC[C@H](OC)C4)c3c2C)c1F [drawing 1031]
inhibition at 20 µM (KRas G12D mutant; [3]): 26 to 50%
inhibition at 20 µM (KRas G12D mutant; [4]): 1 to 25%

COc1cccc(-c2sc3nc(-c4nccn4C)nc(N[C@@H]4CC[C@H](OC)C4)c3c2C)c1F [drawing 894]
KRas Q61H mutant + SOS: % inh. (KRas Q61H mutant; with SOS (Table 7A)): D (76-100% inhibition)
KRas Q61H mutant: % inh. (KRas Q61H mutant; without SOS (Table 7A)): C (51-75% inhibition)
KRas wild type + SOS: % inh. (KRas wild type; with SOS (Table 7A)): D (76-100% inhibition)
KRas wild type % inh. (KRas wild type): C (51-75% inhibition)
inhibition at 20 µM (KRas G12D mutant; [5]): 51 to 75%
inhibition at 20 µM (KRas G12D mutant; [6]): 51 to 75%

Cc1c(-c2ccn(C)n2)sc2nc(-c3nccn3C)nc(NCCCS(C)(=O)=O)c12 [drawing 1064]
IC50 (KRas G12D mutant): 5 to 10 µM

CO[C@H]1CC[C@@H](Nc2nc(-c3nccn3C)nc3sc(-c4cccc5[nH]ncc45)c(-c4ccccc4)c23)C1 [drawing 1024]
inhibition at 20 µM (KRas G12D mutant; [3]): 51 to 75%
inhibition at 20 µM (KRas G12D mutant; [4]): 51 to 75%

Source: US20250296938A1, “Compounds that Interact with the Ras Superfamily for the Treatment of Cancers, Inflammatory Diseases, Rasopathies, and Fibrotic Disease” (SHY Therapeutics, LLC, priority 2018, published 2025)
